Marks after values point to notes of the source that are not given here.
Experiments:
[1] = tested on: southern corn rootworm (SCR) adults; experiment: Sticky trap attraction in corn, estragole analogues (Example 3); type: in vivo, Diabrotica undecimpunctata howardi; settings: 100 mg per trap, n = 4
Summary of the method: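 Cotton wicks dosed with 100 mg or 100 μL attractant per trap on TangleTrap-coated cartons, four replicates 10 m apart on 1 m posts at field edges of hybrid or sweet corn. Mean beetles caught after ~24 h; log-transformed ANOVA with Duncan's test, P=0.05.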

[2] = tested on: northern corn rootworm (NCR); experiment: Sticky trap attraction in corn, phenylethanol analogues (Example 6); type: in vivo, Diabrotica barberi; settings: four replicates; for Mean number of NCR per trap (± standard deviation): 24 hour
Summary of the method: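 Readout was mean adult Diabrotica catch per trap over about 24 h, analysed by ANOVA on log data with Duncan's multiple range test (P=0.05). Traps carried 100 mg or 100 μL attractant per wick unless stated otherwise, with untreated controls, in four randomised replicates 10 m apart on posts along corn fields.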

SCR = experiment: Limit of response rating of squash blossom volatiles on sticky traps (Example 5); type: in vivo, Diabrotica undecimpunctata howardi; settings: 24 hour; four replicate traps; 0.01 mg to 200 mg
Summary of the method: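 Adult Diabrotica beetles were tested against cylindrical sticky traps baited with cotton wicks holding 0.01 mg to 200 mg of individual Cucurbita maxima blossom volatiles. Response limit rated by trap catch.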

[3] = tested on: western corn rootworm (WCR); experiment: Sticky trap attraction in corn, phenylethanol analogues (Example 6); type: in vivo, Diabrotica virgifera virgifera; settings: Table 16; 100 mg per trap; four replicates; 24 hour
Description: Test chemicals (purchased from Aldrich Chemical Co.; Milwaukee, Wis.) were applied by capillary micropipettes to cotton dental wicks that were attached to tops of 1.0 liter cylindrical paper cartons covered with TangleTrap™, Grand Rapids, Mich. The trapping techniques used were as previously described in Example 1. Unless otherwise indicated, all treatments were made at a dosage of 100 mg or 100 μL of attractant per trap. Control traps had untreated wicks. Four replicates of treated and untreated traps were positioned randomly 10 meters apart on top of 1 m high posts along the edges of 25-50 ha. fields of hybrid corn (Zea mays), infested with adult NCR, SCR, and WCR beetles. Several experiments detailed in the Tables were made in a 0.4 ha plot of sweet corn (Illini X-tra Sweet).
Attraction of Diabrotica species adults of the sticky traps was measured by the mean number of beetles caught after 1 day (ca. 24 hours) exposure. The significance of the treatments was determined by analysis of variance and the individual means were separated by Duncan's multiple range test (Statistical Package for the Social Sciences, Nie, et al., 2nd. ed. McGraw-Hill, New York (1975). The data was logarithmically transformed for statistical analysis. Means and standard deviations are presented for the untransformed data. Significance levels were set at P=0.05 for all statistical analyses.

[4] = day 1 after single 100 mg dosage on cotton wick
[5] = day 2 after single 100 mg dosage on cotton wick
[6] = day 3 after single 100 mg dosage on cotton wick
[7] = day 4 after single 100 mg dosage on cotton wick
[8] = day 5 after single 100 mg dosage on cotton wick
[9] = day 6 after single 100 mg dosage on cotton wick
[10] = day 7 after single 100 mg dosage on cotton wick
[11] = day 8 after single 100 mg dosage on cotton wick
[12] = day 11 after single 100 mg dosage on cotton wick

Row | Structure (SMILES) | Mean number of SCR (±standard deviation) per sticky trap after 24 hours ([1]; August 7 (Table 11)) | Mean number of SCR (±standard deviation) per sticky trap after 24 hours ([1]; August 18 (Table 11)) | Mean number (control subtracted) of NCR per trap [2, 4] [per trap] | Mean number (control subtracted) of NCR per trap [2, 5] [per trap] | Mean number (control subtracted) of NCR per trap [2, 6] [per trap] | Mean number (control subtracted) of NCR per trap [2, 7] [per trap] | Mean number (control subtracted) of NCR per trap [2, 8] [per trap] | Mean number (control subtracted) of NCR per trap [2, 9] [per trap] | Mean number (control subtracted) of NCR per trap [2, 10] [per trap] | Mean number (control subtracted) of NCR per trap [2, 11] [per trap] | Mean number (control subtracted) of NCR per trap [2, 12] [per trap] | Mean number of SCR per sticky trap after 24 hours ([1]; August 5 (Table 10)) | Attractant Rating SCR (by limit of response) (SCR) | Mean number of NCR per trap (± standard deviation) ([2]; Table 16, 100 mg per trap) [b per trap] | Mean number of NCR per trap (± standard deviation) ([2]; Table 18, 1 mg) [a per trap] | Mean number of NCR per trap (± standard deviation) ([2]; Table 18, 3 mg) [ab per trap] | Mean number of NCR per trap (± standard deviation) ([2]; Table 18, 10 mg) [bc per trap] | Mean number of NCR per trap (± standard deviation) ([2]; Table 18, 30 mg) [c* per trap] | Mean number of NCR per trap (± standard deviation) ([2]; Table 20, 100 mg per trap) [b per trap] | Mean number of WCR per trap (±standard deviation) [3] [a per trap]
1 | C=CCc1ccc(O)c(OC)c1 [XXIV, eugenol] | 6.2 ± 1.0^a per sticky trap | 0.0^a per sticky trap | 88.2 | 67.3 | 14.3 | 18.0 | 20.7 | 29.9 | 30.2 | 35.5 | 10.0 | – | – | – | – | – | – | – | – | –
2 | OCC=Cc1ccccc1 [XVIII, cinnamyl alcohol] | 24.5 ± 13.6^b per sticky trap | 1.8 ± 1.3^b per sticky trap | 52.0 | 65.3 | 17.3 | 19.5 | 17.7 | 7.7 | 10.4 | 11.0 | 9.8 | 14.5 ± 9.6^ab per sticky trap | +2 (10-30) | 50.7 ± 50.9 | 3.5 ± 2.4 | 4.0 ± 0.8 | 8.5 ± 2.1 | 15.2 ± 4.2 | 127.0 ± 24.2 | 4.0 ± 1.6

From patent US6613317B1, “Volatile attractants for diabrotica species” (priority 1988, dated 2003)
